Experimental data taken from US20240109918A1, “HETEROCYCLIC COMPOUNDS AND USES THEREOF” (Kumquat Biosciences Inc., priority 2022, published 2024).

Columns and labels:
KRASG12D = molecular target: T1, KRASG12D (Homo sapiens, UniProt P01116, G12D); assay: Bio-Biochem-PPI-HTRF Ras-SOS1 interaction assay (KRAS G12D); assay type: biochemical; details: 5 nM
T1 construct: made in house; host or cells: E. coli BL21 (DE3)
Protocol: (§1) The assay buffer can contain −5 mM HEPES pH 7.4, ˜150 mM NaCl, ˜ 1 mM DTT, 0.05% BSA and 0.0025% (v/v) Igepal. A Ras working solution is prepared in an assay buffer containing typically a suitable amount of the protein construct (e.g., GST-tagged K-Ras mutant) and the FRET donor (e.g., antiGST-Eu(K) from Cisbio, France). A SOS1 working solution is prepared in an assay buffer containing suitable amount of the protein construct (e.g., His-hSOS1) and the FRET acceptor (e.g., anti-6His-XL665 from Cisbio, France). A suitable amount of the protein construct will depend on the range of activity or range of IC50 values being detected or under investigation. For detecting IC50 within a range of 500 nM, the protein constructs of the same range of molarity can be utilized. […] A fixed volume of DMSO with or without test compound is transferred into a 384-well plate. Ras working solution is added to all wells of the test plate. SOS1 working solution is added to all wells except for those that are subsequently filled the inhibitor control solution. Upon incubation for about 10 minutes or longer, the fluorescence is measured with a M1000Pro plate reader (Tecan) using HTRF detection (excitation 337 nm, emission 1:620 nm, emission 2: 665 nm). Compounds are tested in duplicates at different concentrations (for example, 10 μM, 2.5 μM, 0.63 μM, 0.16 μM, 0.04 μM, 0.01 μM test compound). The ratiometric data (i.e., emission 2 divided by emission 1) is used to calculate IC50 values against Ras using GraphPad Prism (GraphPad software). Following this general procedure, samples were tested with or without a subject compound disclosed herein including compounds exemplified in Table 1 to assess their abilities to inhibit a mutant K-Ras relative to another mutant K-Ras or wildtype K-Ras. Signaling output measured in terms of IC50 values can be obtained, a ratio of IC50 against one mutant relative to another mutant can be calculated. For instance, a selective reduction of K-Ras G12D signaling output can be evidenced by a ratio greater than one. In particular, a selective reduction of K-Ras G12D signaling relative to K-Ras WT signaling is evidenced as the ratio of IC50 (against K-Ras WT) to IC50 (against K-Ras G12D) is greater than 1.

KRASwt = molecular target: T2, KRASwt (Homo sapiens, UniProt P01116); assay: Bio-Biochem-PPI-HTRF Ras-SOS1 interaction assay (KRAS wt); assay type: biochemical; details: 5 nM
T2 construct: made in house; host or cells: E. coli BL21 (DE3)
T2 sequence (P01116 1-188 isoform P01116-2): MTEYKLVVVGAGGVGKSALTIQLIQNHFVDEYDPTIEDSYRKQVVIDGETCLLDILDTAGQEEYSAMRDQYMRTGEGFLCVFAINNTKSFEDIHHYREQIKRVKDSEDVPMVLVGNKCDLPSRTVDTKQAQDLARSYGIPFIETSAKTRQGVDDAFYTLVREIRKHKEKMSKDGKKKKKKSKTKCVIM
Protocol: as §1

T1 sequence (P01116 1-188 isoform P01116-2 G12D): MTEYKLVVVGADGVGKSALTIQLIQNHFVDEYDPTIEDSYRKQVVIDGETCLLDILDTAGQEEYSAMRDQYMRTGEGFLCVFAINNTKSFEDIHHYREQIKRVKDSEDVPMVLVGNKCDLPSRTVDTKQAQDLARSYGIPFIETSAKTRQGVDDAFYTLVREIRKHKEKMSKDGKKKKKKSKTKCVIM

Compound	IC50 (KRASG12D)	IC50 (KRASwt)
N#CN1CC2(CCCN(c3nc(OC[C@@]45CCCN4C[C@H](F)C5)nc4c(F)c(-c5ccc(F)c6sc(N)nc56)c(Cl)cc34)C2)C1 [compound 177, 6-(7-(2-amino-7-fluorobenzo [d]thiazol-4-yl)-6-chloro-8-fluoro-2-(((2R,7aS)-2-fluorotetrahydro-1H-pyrrolizin-7a(5H)-yl)methoxy)quinazolin-4-yl)-2,6-diazaspiro[3.5]nonane-2-carbonitrile]	< 5 µM	< 5 µM
N#Cc1c(N)sc2c(F)ccc(-c3c(Cl)cc4c(N5CCCCC6(CN(C(=O)C7CC7)C6)C5)nc(OC[C@@]56CCCN5C[C@H](F)C6)nc4c3F)c12 [compound 201, 2-amino-4-(6-chloro-4-(2-(cyclopropanecarbonyl)-2,6-diazaspiro[3.6]decan-6-yl)-8-fluoro-2-(((2R,7aS)-2-fluorotetrahydro-1H-pyrrolizin-7a(5H)-yl)methoxy)quinazolin-7-yl)-7-fluorobenzo[b]thiophene-3-carbonitrile]	< 5 µM	< 5 µM
CC1(C(=O)N2CC3(CCCCN(c4nc(OC[C@@]56CCCN5C[C@H](F)C6)nc5c(F)c(-c6ccc(F)c7sc(N)c(C#N)c67)c(Cl)cc45)C3)C2)CC1(F)F (stereo partly drawn) [compound 277, 2-amino-4-(6-chloro-4-(2-(2,2-difluoro-1-methylcyclopropane-1-carbonyl)-2,6-diazaspiro[3.6]decan-6-yl)-8-fluoro-2-(((2R,7aS)-2-fluorotetrahydro-1H-pyrrolizin-7a(5H)-yl)methoxy)quinazolin-7-yl)-7-fluorobenzo[b]thiophene-3-carbonitrile]	< 5 µM	< 5 µM
C#Cc1c(F)ccc2cc(O)cc(-c3ncc4c(N5CCCC6(CN(C(=O)[C@@H]7C[C@H]7C#N)C6)C5)nc(OC[C@@]56CCCN5C[C@H](F)C6)nc4c3F)c12 [compound 164, (1R,2R)-2-(6-(7-(8-ethynyl-7-fluoro-3-hydroxynaphthalen-1-yl)-8-fluoro-2-(((2R,7aS)-2-fluorotetrahydro-1H-pyrrolizin-7a(5H)-yl)methoxy)pyrido [4,3-d]pyrimidin-4-yl)-2,6-diazaspiro[3.5]nonane-2-carbonyl)cyclopropane-1-carbonitrile]	< 5 µM	< 5 µM
C#Cc1c(F)ccc2cc(O)cc(-c3ncc4c(N5CCCC6(CN(C(=O)[C@@H]7C[C@H]7C#N)C6)C5)nc(O[C@@H](C)[C@@H]5CCCN5C)nc4c3F)c12 [compound 113, (1R,2R)-2-(6-(7-(8-ethynyl-7-fluoro-3-hydroxynaphthalen-1-yl)-8-fluoro-2-((S)-1-((S)-1-methylpyrrolidin-2-yl)ethoxy)pyrido[4,3-d]pyrimidin-4-yl)-2,6-diazaspiro[3.5]nonane-2-carbonyl)cyclopropane-1-carbonitrile]	< 5 µM	< 5 µM
N#Cc1c(N)sc2c(F)ccc(-c3c(Cl)cc4c(N5CCCCC6(CN(C(=O)C7(C(F)(F)F)CC7)C6)C5)nc(OC[C@@]56CCCN5C[C@H](F)C6)nc4c3F)c12 [compound 244, 2-amino-4-(6-chloro-8-fluoro-2-(((2R,7aS)-2-fluorotetrahydro-1H-pyrrolizin-7a(5H)-yl)methoxy)-4-(2-(1-(trifluoromethyl)cyclopropane-1-carbonyl)-2,6-diazaspiro[3.6]decan-6-yl)quinazolin-7-yl)-7-fluorobenzo[b] thiophene-3-carbonitrile]	< 5 µM	< 5 µM
C#Cc1c(F)ccc2cc(O)cc(-c3ncc4c(N5CCCCC6(CN(C(=O)C(F)F)C6)C5)nc(OC[C@@]56CCCN5C[C@H](F)C6)nc4c3F)c12 [compound 344, 1-(6-(7-(8-ethynyl-7-fluoro-3-hydroxynaphthalen-1-yl)-8-fluoro-2-(((2R,7aS)-2-fluorotetrahydro-1H-pyrrolizin-7a(5H)-yl)methoxy)pyrido [4,3-d]pyrimidin-4-yl)-2,6-diazaspiro[3.6]decan-2-yl)-2,2-difluoroethan-1-one]	< 5 µM	< 5 µM
CC(C)C(=O)N1CC2(CCCCN(c3nc(OC[C@@]45CCCN4C[C@H](F)C5)nc4c(F)c(-c5ccc(F)c6sc(N)c(C#N)c56)c(Cl)cc34)C2)C1 [compound 197, 2-amino-4-(6-chloro-8-fluoro-2-(((2R,7aS)-2-fluorotetrahydro-1H-pyrrolizin-7a(5H)-yl)methoxy)-4-(2-isobutyryl-2,6-diazaspiro[3.6]decan-6-yl)quinazolin-7-yl)-7-fluorobenzo[b]thiophene-3-carbonitrile]	< 5 µM	< 5 µM
CN(C)C(=O)N1CC2(CCCN(c3nc(OC[C@@]45CCCN4C[C@H](F)C5)nc4c(F)c(-c5ccc(F)c6sc(N)c(C#N)c56)c(Cl)cc34)C2)C1 [compound 119, 6-(7-(2-amino-3-cyano-7-fluorobenzo[b]thiophen-4-yl)-6-chloro-8-fluoro-2-(((2R,7aS)-2-fluorotetrahydro-1H-pyrrolizin-7a(5H)-yl)methoxy)quinazolin-4-yl)-N,N-dimethyl-2,6-diazaspiro[3.5]nonane-2-carboxamide]	< 5 µM	< 5 µM
CC(C)[C@H](N)C(=O)N1CC2(CCCCN(c3nc(OC[C@@]45CCCN4C[C@H](F)C5)nc4c(F)c(-c5ccc(F)c6sc(N)c(C#N)c56)c(Cl)cc34)C2)C1 [compound 221, 4-(4-(2-(L-valyl)-2,6-diazaspiro[3.6]decan-6-yl)-6-chloro-8-fluoro-2-(((2R,7aS)-2-fluorotetrahydro-1H-pyrrolizin-7a(5H)-yl)methoxy)quinazolin-7-yl)-2-amino-7-fluorobenzo[b]thiophene-3-carbonitrile]	< 5 µM	< 5 µM
CC(C)(O)C(F)(F)C(=O)N1CC2(CCCCN(c3nc(OC[C@@]45CCCN4C[C@H](F)C5)nc4c(F)c(-c5ccc(F)c6sc(N)c(C#N)c56)c(Cl)cc34)C2)C1 [compound 339, 2-amino-4-(6-chloro-4-(2-(2,2-difluoro-3-hydroxy-3-methylbutanoyl)-2,6-diazaspiro[3.6]decan-6-yl)-8-fluoro-2-(((2R,7aS)-2-fluorotetrahydro-1H-pyrrolizin-7a(5H)-yl)methoxy)quinazolin-7-yl)-7-fluorobenzo[b]thiophene-3-carbonitrile]	< 5 µM	< 5 µM
N#Cc1c(N)sc2c(F)ccc(-c3c(Cl)cc4c(N5CCC(OC(F)F)CC6(CN(C(=O)[C@@H]7CC7(F)F)C6)C5)nc(OC[C@@]56CCCN5C[C@H](F)C6)nc4c3F)c12 (stereo partly drawn) [compound 313, 2-amino-4-(6-chloro-4-(2-((S)-2,2-difluorocyclopropane-1-carbonyl)-9-(difluoromethoxy)-2,6-diazaspiro[3.6]decan-6-yl)-8-fluoro-2-(((2R,7aS)-2-fluorotetrahydro-1H-pyrrolizin-7a(5H)-yl)methoxy)quinazolin-7-yl)-7-fluorobenzo[b]thiophene-3-carbonitrile]	< 5 µM	< 5 µM
N#Cc1c(N)sc2c(F)ccc(-c3c(Cl)cc4c(N5CCCCC6(CN(C(=O)C7CC(C#N)C7)C6)C5)nc(OC[C@@]56CCCN5C[C@H](F)C6)nc4c3F)c12 (stereo partly drawn) [compound 294, 2-amino-4-(6-chloro-4-(2-(3-cyanocyclobutane-1-carbonyl)-2,6-diazaspiro[3.6]decan-6-yl)-8-fluoro-2-(((2R,7aS)-2-fluorotetrahydro-1H-pyrrolizin-7a(5H)-yl)methoxy)quinazolin-7-yl)-7-fluorobenzo[b]thiophene-3-carbonitrile]	< 5 µM	< 5 µM
C#Cc1c(F)ccc2cc(O)cc(-c3ccc4c(N5CCCCC6(CN(C(=O)[C@H]7CC7(F)F)C6)C5)nc(OC[C@@]56CCCN5C[C@H](F)C6)nc4c3F)c12 [compound 305, ((R)-2,2-difluorocyclopropyl) (6-(7-(8-ethynyl-7-fluoro-3-hydroxynaphthalen-1-yl)-8-fluoro-2-(((2R,7aS)-2-fluorotetrahydro-1H-pyrrolizin-7a(5H)-yl)methoxy)quinazolin-4-yl)-2,6-diazaspiro[3.6]decan-2-yl)methanone]	< 5 µM	< 5 µM
CN(C)CCC(=O)N1CC2(C1)CN(c1nc(OC[C@@]34CCCN3C[C@H](F)C4)nc3c(F)c(-c4ccc(F)c5sc(N)c(C#N)c45)c(Cl)cc13)CCO2 [compound 312, 2-amino-4-(6-chloro-4-(2-(3-(dimethylamino)propanoyl)-5-oxa-2,8-diazaspiro[3.5]nonan-8-yl)-8-fluoro-2-(((2R,7aS)-2-fluorotetrahydro-1H-pyrrolizin-7a(5H)-yl)methoxy)quinazolin-7-yl)-7-fluorobenzo[b]thiophene-3-carbonitrile]	< 5 µM	< 5 µM
